In US20250114430A1, “MODIFIED PEPTIDOMIMETICS AND METHODS OF USE” (The University of North Carolina at Chapel Hill, priority 2021, published 2025):
No end group written: not given here.

Experiments:
P. aeruginosa POA1 = assay: P. aeruginosa infection in Orai1 heterozygous mice and WT littermates; format: in vivo; conditions: 10^7 CFU/mouse, 0.5 mg/kg intranasal
From the text: ELD607, but not global Orai1 inhibition or steroids beneficially reduce pulmonary inflammation after P. aeruginosa infection.

[1] = Lung retention and blood exposure after intratracheal dosing in mice; conditions: mouse, in vivo
Method: FIG. 30 panels B and C show % ELD607 recovered in BAL (FIG. 30 panel B) and blood (FIG. 30 panel C).
ELD607 is retained in the lung lumen. ELD607-TAMRA or vehicle (saline) was administered to mice intratracheally (0.5 mM, 1 h). Lungs were isolated, fixed, clarified and imaged using light-sheet fluorescence microscopy. […] We then dosed mice with 10 mg/kg ELD607 and collected BAL and blood. ELD607 levels declined over time in the BAL and plateaued with ˜10% of the initial dose detected after 2 h (FIG. 30, panel B).

[2] = system: Primary human bronchial epithelial cultures; assay: Cytotoxicity and transepithelial resistance in primary human bronchial epithelial cultures; format: cell-based; conditions: 1 mM, 24 h
Method: FIG. 28 panels C and D show cell viability per arbitrary units (left) and transepithelial resistance (right) of vehicle vs. ELD607 before and after treatment.
ELD607 is non-toxic in vitro and in vivo. To investigate potential cytotoxic effects of ELD607, […] were exposed to 100 μM ELD607 for 24 h. Cytotoxicity was assessed by exposing cells to calcein to label live cells and fluorescence read by multi-plate reader. […] Primary human bronchial epithelial cultures were exposed to 1 mM ELD607 or vehicle control (saline) for 24 h. Cytotoxicity was assessed by confocal microscopy using calcein and propidium iodide to label live and dead cells respectively. […] Transepithelial resistance was also measured before and after treatment as a measure of epithelial integrity.

P. aeruginosa = P. aeruginosa infection in WT mice, ELD607 versus comparators; format: in vivo; conditions: WT mice infected with P. aeruginosa
From the text: We then infected WT mice with P. aeruginosa and treated with ELD607, the Orai1 small molecule antagonist […], dexamethasone or scrambled ELD607.

αSMA = αSMA deposition in primary myofibroblasts from IPF patients; format: cell-based, human; conditions: primary myofibroblasts from five IPF patients
Method: Each pair of point represents paired data from 5 different IPF donors.
In vitro Methods: Fibroblasts were exposed to 10 nM TFGβ for 3-7 days as indicated. Then, ELD607 was added overnight. Fibroblasts were then fixed in paraformaldehyde, stained with primary a smooth muscle actin (αSMA) antibody, and imaged by confocal microscopy. Myofibroblasts were exposed to ELD607 without any TGFβ pre-treatment. In some cases, Western blotting was used to probe for αSMA.

NFAT = assay: NFAT-GFP relocation to the nucleus in HEK293T cells after stimulation of SOCE; format: cell-based; conditions: thapsigargin
From the text: To determine whether ELD607 internalized Orai1, total internal reflection fluorescence (TIRF) microscopy was used to measure Orai1 in the plasma membrane. […] However, ELD607 reduced Orai1 plasma membrane expression by ˜50% (FIG. 26, panels A-B). […] We expressed NFAT-GFP in HEK293T cells and evaluated the ability of ELD607 to attenuate NFAT relocation to the nucleus after stimulation of SOCE by confocal microscopy. ELD607 reduced the percentage of NFAT in the nucleus by greater than 50% (FIG. 26, panels C-D).

Orai1 [3] = molecular target: T1, Orai1 (Homo sapiens, UniProt Q96D31); assay: Dose response of Ca^2+ influx (SOCE), Ca^2+ add back approach, HEK293T cells; format: cell-based; set-up: Endogenous Orai1/store operated Ca^2+ influx have been extensively studied in HEK293T cells; endogenous in cells; host or cells: HEK293T
T1 sequence (Q96D31 whole entry): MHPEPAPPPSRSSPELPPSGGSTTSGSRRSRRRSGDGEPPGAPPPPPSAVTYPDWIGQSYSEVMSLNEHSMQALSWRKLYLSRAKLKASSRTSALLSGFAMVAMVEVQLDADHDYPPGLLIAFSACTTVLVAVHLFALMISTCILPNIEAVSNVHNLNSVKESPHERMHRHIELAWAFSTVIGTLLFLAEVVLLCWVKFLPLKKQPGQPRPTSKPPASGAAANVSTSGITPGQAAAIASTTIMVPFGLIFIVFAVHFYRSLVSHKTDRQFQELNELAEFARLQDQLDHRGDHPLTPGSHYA
Method: HEK293T cells were cultured in 384 well plates. Cells were then exposed to vehicle or […] ELD607 for 1 h. 100 nM thapsigargin was then added followed by extracellular Ca^2+ to differentiate ER Ca^2+ release and SOCE. n=8-12 cultures per data point.
(§1) ELD607 requires Orai1 expression to inhibit Ca^2+ signaling. […] Using this approach, curves were fitted to the data and the 50% inhibitory concentrations (IC50S) were calculated.

Orai1 [4] = molecular target: T1, Orai1; assay: Thapsigargin / Ca^2+ add back assay in HEK293T cells with anti-Orai1 shRNA; format: cell-based; set-up: Endogenous Orai1/store operated Ca^2+ influx have been extensively studied in HEK293T cells; endogenous in cells; host or cells: HEK293T
Method: HEK293T cells were transfected with anti-Orai1 shRNA for 48 h and the change in Fluo4 fluorescence was measured. Cells were then exposed to vehicle or […] ELD607 for 1 h. Thapsigargin was then added followed by extracellular Ca^2+ to differentiate ER Ca^2+ release and SOCE. n=8 cultures per condition.
as §1

Question: For VHDIVNMLIRG [ELD607, VHDIVNMLIRG], which “leukocyte levels in WT littermate controls” value (P. aeruginosa POA1) is on record?
Answer: Its value is “normalized leukocytes similar to naïve mice”.

Question: What about the “% of the initial dose detected in BAL” value [1] of the same sequence?
Answer: The value was about 10%.

Question: What about the “% of the original dose detected in the blood” value [1] of the same sequence?
Answer: The value was “less than 0.3%”.

Question: What about the “cytotoxicity (calcein and propidium iodide)” value [2] of the same sequence?
Answer: The value was “not significantly different to vehicle control”.

Question: And the transepithelial resistance ([2]; before and after treatment)?
Answer: Its transepithelial resistance is “No differences were found”.

Question: And the bacterial infections (P. aeruginosa)?
Answer: The bacterial infections was “significantly reduced”.

Question: And the lung macrophage levels (P. aeruginosa)?
Answer: Its lung macrophage levels is “increased lung macrophage levels”.

Question: What about the neutrophilia (P. aeruginosa) of the same sequence?
Answer: The neutrophilia was “significantly reduced”.

Question: What about the weight loss (P. aeruginosa) of the same sequence?
Answer: Its weight loss is “significantly reduced”.

Question: What about the αSMA deposition (αSMA) of the same sequence?
Answer: The αSMA deposition was “significantly reduces αSMA deposition”.

Question: And the “reduction of the percentage of NFAT in the nucleus” value (NFAT)?
Answer: Its value is “greater than 50%”.

Question: What about the IC50 (Orai1 [3]; Ca^2+ influx, HEK293T, 100 nM thapsigargin, read-out: IC50 (Molar)) of the same sequence?
Answer: Its IC50 is 81 nM.

Question: And the “Bottom (%)” value (Orai1 [3]; fitted curve bottom, text: maximal inhibitions)?
Answer: The value was 37.76%.

Question: And the “thapsigargin-stimulated Ca^2+ release from the ER” value (Orai1 [4]; absence of extracellular Ca^2+)?
Answer: The value was “had no effect on this component”.

Question: And the “effect on Ca^2+ homeostasis after shRNA knockdown of Orai1” value (Orai1 [4]; anti-Orai1 shRNA 48 h)?
Answer: The value was “no longer able to affect Ca^2+ homeostasis”.

Question: And the “Ca^2+ influx” value (Orai1 [4]; extracellular Ca^2+ added back)?
Answer: Its value is “reduced Ca^2+ influx”.
